In publication PMC10452110, “Indole-3-Acetamido-Polyamines as Antimicrobial Agents and Antibiotic Adjuvants” (Biomolecules, 2023):

Legend:
[1] = system: Staphylococcus aureus (ATCC 25923); experiment: Intrinsic antimicrobial activity (MIC) against S. aureus; assay type: cell-based; details: ATCC25923, S. aureus ATCC 25923, mean (n = 3), read-out: MIC S. a
Outline: (§1)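 Susceptibility testing: bacteria per earlier published methods; fungi per CO-ADD standard protocols (University of Queensland).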

[2] = system: MRSA (ATCC 43300); experiment: Intrinsic antimicrobial activity (MIC) against MRSA; assay type: cell-based; details: Staphylococcus aureus, MRSA ATCC 43300; mean (n = 2); read-out: MIC MRSA
Outline: as §1

[3] = system: Pseudomonas aeruginosa (ATCC 27853); experiment: Intrinsic antimicrobial activity (MIC) against P. aeruginosa; assay type: cell-based; details: ATCC27853, P. aeruginosa ATCC 27853, mean (n = 3), read-out: MIC P. a
Outline: as §1

[4] = system: Escherichia coli (ATCC 25922); experiment: Intrinsic antimicrobial activity (MIC) against E. coli; assay type: cell-based; details: ATCC25922, E. coli ATCC 25922, mean (n = 3), read-out: MIC E. c
Outline: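 Bacterial susceptibility was determined following previously reported protocols. The antifungal evaluations were carried out at the Community for Open Antimicrobial Drug Discovery (University of Queensland, Australia) under its standard protocols.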

[5] = system: Klebsiella pneumoniae (ATCC 700603); experiment: Intrinsic antimicrobial activity (MIC) against K. pneumoniae; assay type: cell-based; details: ATCC700603, K. pneumoniae ATCC 700603, mean (n = 2), read-out: MIC K. p
Method: (§2) The susceptibility of bacterial strains Staphylococcus aureus (ATCC 25923), Escherichia coli (ATCC 25922) and Pseudomonas aeruginosa (ATCC 27853) to antibiotics and compounds was determined using previously reported protocols. Additional antimicrobial evaluation against MRSA (ATCC 43300), Klebsiella pneumoniae (ATCC 700603), Acinetobacter baumannii (ATCC 19606), Candida albicans (ATCC 90028) and Cryptococcus neoformans (ATCC 208821) was undertaken at the Community for Open Antimicrobial Drug Discovery at The University of Queensland (Australia) according to their standard protocols, as reported previously.

[6] = system: Acinetobacter baumannii (ATCC 19606); experiment: Intrinsic antimicrobial activity (MIC) against A. baumannii; assay type: cell-based; details: ATCC19606, A. baumannii ATCC 19606, mean (n = 2), read-out: MIC A. b
Method: as §2

[7] = system: Candida albicans (ATCC 90028); experiment: Intrinsic antifungal activity (MIC) against C. albicans; assay type: cell-based; details: ATCC90028, C. albicans ATCC 90028, mean (n = 2), read-out: MIC C. a
Outline: (§3)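 Fungal strains were tested by CO-ADD at The University of Queensland using that facility's standard protocols, whereas bacterial MICs followed methods published earlier.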

[8] = system: Cryptococcus neoformans (ATCC 208821); experiment: Intrinsic antifungal activity (MIC) against C. neoformans; assay type: cell-based; details: ATCC208821, C. neoformans ATCC 208821, mean (n = 2), read-out: MIC C. n
Outline: as §3

[9] = Cytotoxicity assay; assay type: cell-based; details: human; HEK293 cells; mean (n = 2); read-out: Cytotoxicity: concentration of compound at 50% cytotoxicity (IC50)
Method: Cytotoxicity assays were conducted using the protocols previously reported.

[10] = system: human red blood cells; experiment: Hemolytic assay; assay type: cell-based; details: mean (n = 2)
Method: Hemolysis assays were conducted using the protocols previously reported.

[11] = system: P. aeruginosa ATCC 27853; experiment: Enhancement of doxycycline action against P. aeruginosa; assay type: cell-based, Pseudomonas aeruginosa; details: doxycycline at 4.5 µM
Method: (§4) Antibiotic enhancer concentrations were determined using previously reported protocols.

[12] = system: E. coli ATCC 25922; experiment: Enhancement of erythromycin action against E. coli; assay type: cell-based, Escherichia coli; details: erythromycin at 10.9 µM
Method: as §4

SMILES	MIC [1]	MIC [2]	MIC [3]	MIC [4]	MIC [5]	MIC [6]	MIC [7]	MIC [8]	IC50 [9]	Hemolysis: concentration of compound at 10% hemolytic activity (HC10) [10]	Dox/P. a fold change (ratio between intrinsic MIC of the test compound and combination MIC) [11]	Dox/P. a: concentration required to restore doxycycline activity (combination MIC) [11]	Eryth/E. c: concentration required to restore erythromycin activity (combination MIC) [12]
Cc1ccc2[nH]cc(CC(=O)NCCCNCCCCCCCNCCCNC(=O)Cc3c[nH]c4ccc(C)cc34)c2c1.O=C(O)C(F)(F)F.O=C(O)C(F)(F)F [Compound 17c, N^1,N^7-Bis(3-(2-(5-methyl-1H-indol-3-yl)acetamido)propyl)heptane-1,7-diaminium 2,2,2-trifluoroacetate]	61.4 µM	< 0.2 µM	> 245 µM	245 µM	> 39 µM	> 39 µM	39.3 µM	< 0.2 µM	> 39 µM	>39 µM	> 2 fold	123 µM	61.4 µM
COc1ccc2[nH]cc(CC(=O)NCCCNCCCCCCCCCCNCCCNC(=O)Cc3c[nH]c4ccc(OC)cc34)c2c1.O=C(O)C(F)(F)F.O=C(O)C(F)(F)F [Compound 16e, N^1,N^10-Bis(3-(2-(5-methoxy-1H-indol-3-yl)acetamido)propyl)decane-1,10-diaminium 2,2,2-trifluoroacetate]	7.03 µM	≤ 0.28 µM	112 µM	14.1 µM	> 36 µM	> 36 µM	2.25 µM	≤ 0.28 µM	> 36 µM	>36 µM	8 fold	14.1 µM	28.1 µM
COc1cccc2c(CC(=O)NCCCNCCCCCCCNCCCNC(=O)Cc3c[nH]c4c(OC)cccc34)c[nH]c12.O=C(O)C(F)(F)F.O=C(O)C(F)(F)F [Compound 19c, N^1,N^7-Bis(3-(2-(7-methoxy-1H-indol-3-yl)acetamido)propyl)heptane-1,7-diaminium 2,2,2-trifluoroacetate]	29.5 µM	37.8 µM	> 236 µM	236 µM	> 38 µM	> 38 µM	> 38 µM	≤ 0.3 µM	> 38 µM	>38 µM	> 2 fold	118 µM	236 µM
O=C(Cc1c[nH]c2c(F)cccc12)NCCCNCCCCCCNCCCNC(=O)Cc1c[nH]c2c(F)cccc12.O=C(O)C(F)(F)F.O=C(O)C(F)(F)F [Compound 18b, N^1,N^6-Bis(3-(2-(7-fluoro-1H-indol-3-yl)acetamido)propyl)hexane-1,6-diaminium 2,2,2-trifluoroacetate]	124 µM	< 0.2 µM	> 247 µM	> 247 µM	> 40 µM	> 40 µM	39.6 µM	< 0.2 µM	> 40 µM	>40 µM	> 1 fold	247 µM	> 247 µM
O=C(Cc1c[nH]c2c(F)cccc12)NCCCNCCCCNCCCNC(=O)Cc1c[nH]c2c(F)cccc12.O=C(O)C(F)(F)F.O=C(O)C(F)(F)F [Compound 18a, N^1,N^4-Bis(3-(2-(7-fluoro-1H-indol-3-yl)acetamido)propyl)butane-1,4-diaminium 2,2,2-trifluoroacetate]	16 µM	< 0.2 µM	> 256 µM	256 µM	> 41 µM	> 41 µM	5.12 µM	< 0.2 µM	> 41 µM	>41 µM	4 fold	64.0 µM	64.0 µM
COc1ccc2[nH]cc(CC(=O)NCCCNCCCCCCCCCCCCNCCCNC(=O)Cc3c[nH]c4ccc(OC)cc34)c2c1.O=C(O)C(F)(F)F.O=C(O)C(F)(F)F [Compound 16f, N^1,N^12-Bis(3-(2-(5-methoxy-1H-indol-3-yl)acetamido)propyl)dodecane-1,12-diaminium 2,2,2-trifluoroacetate]	6.82 µM	≤ 0.27 µM	109 µM	13.6 µM	> 35 µM	> 35 µM	35 µM	≤ 0.27 µM	> 35 µM	>35 µM	8 fold	13.6 µM	27.3 µM
COc1ccc2[nH]cc(CC(=O)NCCCNCCCCCCCCNCCCNC(=O)Cc3c[nH]c4ccc(OC)cc34)c2c1.O=C(O)C(F)(F)F.O=C(O)C(F)(F)F [Compound 16d, N^1,N^8-Bis(3-(2-(5-methoxy-1H-indol-3-yl)acetamido)propyl)octane-1,8-diaminium 2,2,2-trifluoroacetate]	25 µM	2.32 µM	100 µM	6.25 µM	> 37 µM	> 37 µM	> 37 µM	≤ 0.29 µM	> 37 µM	>37 µM		6.25 µM	6.25 µM
O=C(Cc1c[nH]c2ccc(Br)cc12)NCCCNCCCCCCNCCCNC(=O)Cc1c[nH]c2ccc(Br)cc12.O=C(O)C(F)(F)F.O=C(O)C(F)(F)F [Compound 15b, N^1,N^6-Bis(3-(2-(5-bromo-1H-indol-3-yl)acetamido)propyl)hexane-1,6-diaminium 2,2,2-trifluoroacetate]	13.4 µM	< 0.2 µM	215 µM	26.9 µM	> 34 µM	> 34 µM	2.15 µM	< 0.2 µM	> 34 µM	>34 µM	8 fold	26.9 µM	53.7 µM
COc1ccc2[nH]cc(CC(=O)NCCCNCCCCCCCNCCCNC(=O)Cc3c[nH]c4ccc(OC)cc34)c2c1.O=C(O)C(F)(F)F.O=C(O)C(F)(F)F [Compound 16c, N^1,N^7-Bis(3-(2-(5-methoxy-1H-indol-3-yl)acetamido)propyl)heptane-1,7-diaminium 2,2,2-trifluoroacetate]	> 200 µM	> 38 µM	> 200 µM	25 µM	> 38 µM	> 38 µM	> 38 µM	2.36 µM	> 38 µM	>38 µM		12.5 µM	50 µM
COc1ccc2[nH]cc(CC(=O)NCCCNCCCCCCNCCCNC(=O)Cc3c[nH]c4ccc(OC)cc34)c2c1.O=C(O)C(F)(F)F.O=C(O)C(F)(F)F [Compound 16b, N^1,N^6-Bis(3-(2-(5-methoxy-1H-indol-3-yl)acetamido)propyl)hexane-1,6-diaminium 2,2,2-trifluoroacetate]	50 µM	38 µM	> 200 µM	100 µM	> 38 µM	> 38 µM	> 38 µM	≤ 0.3 µM	> 38 µM	>38 µM	> 8 fold	25 µM	50 µM
